What was measured:
[1] = biological target: Atypical kinase COQ8B, mitochondrial (Homo sapiens) (UniProt Q96D53); assay: Binding affinity to wild-type human full length ADCK4 (M1 to S544 residues) expressed in bacterial expression system assessed as residual binding level at 10 uM by Kinomescan method relative to control
[2] = biological target: Mitogen-activated protein kinase kinase kinase 6 (Homo sapiens) (UniProt O95382); assay: Binding affinity to wild-type human partial length ASK2 (M278 to R972 residues) expressed in mammalian expression system assessed as residual binding level at 10 uM by Kinomescan method relative to control
[3] = biological target: Bone morphogenetic protein receptor type-2 (Homo sapiens) (UniProt Q13873); assay: Binding affinity to wild-type human partial length BMPR2 (R179 to Q526 residues) expressed in mammalian expression system assessed as residual binding level at 10 uM by Kinomescan method relative to control
[4] = biological target: Mitotic checkpoint serine/threonine-protein kinase BUB1 (Homo sapiens) (UniProt O43683); assay: Binding affinity to wild-type human partial length BUB1 (Q724 to K1085 residues) expressed in mammalian expression system assessed as residual binding level at 10 uM by Kinomescan method relative to control
[5] = biological target: Calcium/calmodulin-dependent protein kinase kinase 1 (Homo sapiens) (UniProt Q8N5S9); assay: Binding affinity to wild-type human partial length CAMKK1 (R65 to E414 residues) expressed in bacterial expression system assessed as residual binding level at 10 uM by Kinomescan method relative to control
[6] = biological target: Peripheral plasma membrane protein CASK (Homo sapiens) (UniProt O14936); assay: Binding affinity to wild-type human partial length CASK (M1 to H315 residues) expressed in mammalian expression system assessed as residual binding level at 10 uM by Kinomescan method relative to control
[7] = biological target: Cyclin-dependent kinase 4/cyclin D1 (Homo sapiens) (UniProt P11802+P24385); assay: Binding affinity to wild-type human full length CDK4/cyclinD1 (M1 to E303 residues) expressed in mammalian expression system assessed as residual binding level at 10 uM by Kinomescan method relative to control
[8] = biological target: Macrophage colony-stimulating factor 1 receptor (Homo sapiens) (UniProt P07333); assay: Binding affinity to wild-type human partial length CSF1R (I564 to S939 residues) expressed in bacterial expression system assessed as residual binding level at 10 uM by Kinomescan method relative to control
[9] = biological target: Casein kinase I isoform alpha-like (Homo sapiens) (UniProt Q8N752); assay: Binding affinity to wild-type human full length CSNK1A1L (M1 to N337 residues) expressed in bacterial expression system assessed as residual binding level at 10 uM by Kinomescan method relative to control
[10] = biological target: Casein kinase I isoform gamma-2 (Homo sapiens) (UniProt P78368); assay: Binding affinity to wild-type human full length CSNK1G2 (M1 to K415 residues) expressed in bacterial expression system assessed as residual binding level at 10 uM by Kinomescan method relative to control
[11] = biological target: Casein kinase II subunit alpha' (Homo sapiens) (UniProt P19784); assay: Binding affinity to wild-type human full length CSNK2A2 (M1 to R350 residues) expressed in mammalian expression system assessed as residual binding level at 10 uM by Kinomescan method relative to control
[12] = biological target: Death-associated protein kinase 1 (Homo sapiens) (UniProt P53355); assay: Binding affinity to wild-type human partial length DAPK1 (M1 to F296 residues) expressed in bacterial expression system assessed as residual binding level at 10 uM by Kinomescan method relative to control
[13] = test system: Epidermal growth factor receptor (Homo sapiens), P00533 [L858R,T790M]; assay: Binding affinity to human partial length EGFR L858R/T790M double mutant (R669 to V1011 residues) expressed in mammalian expression system assessed as residual binding level at 10 uM by Kinomescan method relative to control
[14] = test system: Fibroblast growth factor receptor 3 (Homo sapiens), P22607 [G697C]; assay: Binding affinity to human partial length FGFR3 G697C mutant (R442 to S771 residues) expressed in bacterial expression system assessed as residual binding level at 10 uM by Kinomescan method relative to control
[15] = test system: Receptor-type tyrosine-protein kinase FLT3 (Homo sapiens), P36888 [K663Q]; assay: Binding affinity to human partial length FLT3 K663Q mutant (V592 to Y969 residues) expressed in bacterial expression system assessed as residual binding level at 10 uM by Kinomescan method relative to control
[16] = biological target: Mitogen-activated protein kinase 9 (Homo sapiens) (UniProt P45984); assay: Binding affinity to wild-type human full length JNK2 (M1 to Q382 residues) expressed in mammalian expression system assessed as residual binding level at 10 uM by Kinomescan method relative to control
[17] = biological target: Serine/threonine-protein kinase 3 (Homo sapiens) (UniProt Q13188); assay: Binding affinity to wild-type human partial length MST2 (D17 to E318 residues) expressed in bacterial expression system assessed as residual binding level at 10 uM by Kinomescan method relative to control
[18] = biological target: Mitogen-activated protein kinase kinase kinase 14 (Homo sapiens) (UniProt Q99558); assay: Binding affinity to wild-type human partial length NIK (L318 to P947 residues) expressed in mammalian expression system assessed as residual binding level at 10 uM by Kinomescan method relative to control
[19] = biological target: 3-phosphoinositide-dependent protein kinase 1 (Homo sapiens) (UniProt O15530); assay: Binding affinity to wild-type human full length PDPK1 (M1 to Q556 residues) expressed in bacterial expression system assessed as residual binding level at 10 uM by Kinomescan method relative to control
[20] = test system: Phosphatidylinositol 4,5-bisphosphate 3-kinase catalytic subunit alpha isoform (Homo sapiens), P42336 [H1047L]; assay: Binding affinity to human partial length PIK3CA H1047L mutant (R108 to N1068 residues) expressed in mammalian expression system assessed as residual binding level at 10 uM by Kinomescan method relative to control
[21] = biological target: Receptor-interacting serine/threonine-protein kinase 2 (Homo sapiens) (UniProt O43353); assay: Binding affinity to wild-type human partial length RIPK2 (M1 to K310 residues) expressed in bacterial expression system assessed as residual binding level at 10 uM by Kinomescan method relative to control
[22] = biological target: SRSF protein kinase 3 (Homo sapiens) (UniProt Q9UPE1); assay: Binding affinity to wild-type human partial length SRPK3 (P41 to P567 residues) expressed in bacterial expression system assessed as residual binding level at 10 uM by Kinomescan method relative to control
[23] = biological target: Serine/threonine-protein kinase TAO3 (Homo sapiens) (UniProt Q9H2K8); assay: Binding affinity to wild-type human partial length TAOK3 (M1 to T316 residues) expressed in mammalian expression system assessed as residual binding level at 10 uM by Kinomescan method relative to control
[24] = biological target: Serine/threonine-protein kinase 32A (Homo sapiens) (UniProt Q8WU08); assay: Binding affinity to wild-type human full length YANK1 (M1 to L396 residues) expressed in mammalian expression system assessed as residual binding level at 10 uM by Kinomescan method relative to control

O=C(Nc1cc(-c2cn(CCNc3c4c(nc5ccccc35)CCCC4)nn2)ccn1)Nc1cccc2c1C1CCCCN1C2=O (racemic)
Activity [1]: 77% | Activity [2]: 87% | Activity [3]: 55% | Activity [4]: 6.4% | Activity [5]: 23% | Activity [6]: 65% | Activity [7]: 1.1% | Activity [8]: 0.2% | Activity [9]: 4.5% | Activity [10]: 68% | Activity [11]: 5% | Activity [12]: 68% | Activity [13]: 87% | Activity [14]: 40% | Activity [15]: 0.8% | Activity [16]: 2.6% | Activity [17]: 21% | Activity [18]: 28% | Activity [19]: 41% | Activity [20]: 93% | Activity [21]: 66% | Activity [22]: 15% | Activity [23]: 3.8% | Activity [24]: 95%

Reference: ChEMBL document CHEMBL4390652, “Design, biological evaluation and X-ray crystallography of nanomolar multifunctional ligands targeting simultaneously acetylcholinesterase and glycogen synthase kinase-3” (Eur J Med Chem, 2019)
